Ends that are not written are not given here.
Target: T1, KITENIN (Homo sapiens, UniProt Q8TAA9)
T1 construct: decreased endogenous KITENIN protein levels in non‐transfected HCT116 and CT‐26 cells; endogenous in cells; host or cells: HCT116
T1 sequence (Q8TAA9 1-524): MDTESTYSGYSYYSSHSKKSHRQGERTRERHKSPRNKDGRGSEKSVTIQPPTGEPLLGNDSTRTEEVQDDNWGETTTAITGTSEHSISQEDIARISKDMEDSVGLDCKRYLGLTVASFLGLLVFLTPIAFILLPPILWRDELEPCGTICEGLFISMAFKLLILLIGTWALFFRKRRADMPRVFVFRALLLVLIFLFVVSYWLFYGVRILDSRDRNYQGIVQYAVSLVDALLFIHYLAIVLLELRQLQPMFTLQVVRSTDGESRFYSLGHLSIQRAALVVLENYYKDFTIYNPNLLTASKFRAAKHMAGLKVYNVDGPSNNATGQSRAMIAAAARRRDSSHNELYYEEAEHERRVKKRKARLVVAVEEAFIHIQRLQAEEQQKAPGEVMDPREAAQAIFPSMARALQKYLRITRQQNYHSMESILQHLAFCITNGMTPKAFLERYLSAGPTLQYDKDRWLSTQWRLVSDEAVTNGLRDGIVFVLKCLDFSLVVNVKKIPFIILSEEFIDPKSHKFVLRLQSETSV
Experiment: Endogenous KITENIN protein level in HCT116 cells (immunoblot)
Type: cell-based
Settings: non-transfected HCT116 cells, KDIP 1 μM, 12 h
Source text: Antibodies against the following proteins were obtained from the indicated suppliers: Na^+/K^+ ATPase, GFP and tubulin (Santa Cruz Biotechnology); c‐Jun, p‐c‐Jun, ERK, p‐ERK, c‐MET, p‐c‐MET and GST (Cell Signaling Technology); V5, Myc (MBL); HA and β‐actin (Sigma); KITENIN (Atlas); His and RACK1, LC3, p62, Myo10, and eukaryotic elongation factor 2 (eEF2) (Abcam). They were used with appropriate secondary antibodies (Thermo). For transient transfection analyses, Caco2, HCT116 and 293T cells were transfected with various plasmids and harvested for immunoblot analysis 48 h after transfection. For most assays using stable cell lines, mixed polyclonal cells were used to exclude clonal variation. […]
FIGURE 2 KAI1 C‐terminal interacting tetraspanin (KITENIN) dimerization‐interfering peptide (KDIP) suppresses KITENIN‐induced enhanced cell invasion through the inhibition of the homodimerization of KITENIN. […] After 48 h of treatment, KITENIN transcripts in cells were analysed by the 2^−ΔΔ ^CT method using Q‐PCR. […] Caco2 cells were co‐transfected with KITENIN‐V5/Myc and treated with or without KDIP or scrambled peptide (scr) and were immunoprecipitated with anti‐V5 antibody and detected by indicated antibodies. Numerals indicated a quantification of the MYC bands normalized to the corresponding V5 bands (left panel). […] Numerals indicated a quantification of the bands observed (left panel). […]

YARVRRRGPRRWRLVSDEAV [KDIP]
endogenous KITENIN protein level (in words): decreased

From PMC9296036, “A peptide interfering with the dimerization of oncogenic KITENIN protein and its stability suppresses colorectal tumour progression” (Clinical and Translational Medicine, 2022)
